# Laboratory results: ChEMBL document CHEMBL1759992
# Activity calls are given as the source filed them. The calls are words filed in the database; no cut-off is given here.
# Key:
# [1] = tested on: Rattus norvegicus; assay: Inhibition of lethal factor-induced toxicity in Fischer 344 rat assessed as enhancement of survival rate at 5 mg/kg, iv followed by administration of 10 ug lethal toxin after 20 to 30 mins of compound dosing; format: functional, organism-based; design: dose 5 mg/kg
# [2] = tested on: Rattus norvegicus; assay: Inhibition of lethal factor-induced toxicity in Fischer 344 rat assessed as enhancement of survival rate at 2.5 mg/kg, iv followed by administration of 10 ug lethal toxin after 20 to 30 mins of compound dosing; format: functional, organism-based; design: dose 2.5 mg/kg
SMILES,Survival [1],Survival [2]
CO[C@H](C[C@H](CCCCCNCCc1ccc(F)cc1)C(=O)NO)c1ccc(F)cc1,inactive,–
Cc1cc(O[C@H](CCCCCNCc2ccc(F)cc2)C(=O)NO)cc(C)c1F,inactive,–
Cc1cc(CNCCCC[C@@H](Oc2ccc(F)c(C)c2)C(=O)NO)ccc1F,inactive,–
Cc1cc(CNCCCC[C@@H](Nc2cc(C)c(F)c(C)c2)C(=O)NO)ccc1F,Active,inactive
Cc1cc(N[C@H](CCCCNCc2ccc(F)cc2)C(=O)NO)cc(C)c1F,Active,Active
O=C(NO)[C@@H](CCCCNCc1ccc(F)cc1)Nc1ccc(F)c(Cl)c1,inactive,–
Cc1cc(O[C@H](CCCCNCc2ccc(F)cc2)C(=O)NO)cc(C)c1F,inactive,–
Cc1cc(CNCCCC[C@@H](Nc2ccc(F)c(C)c2)C(=O)NO)ccc1F,inactive,–
Cc1cc(O[C@H](CCCCCNCCc2ccc(F)cc2)C(=O)NO)cc(C)c1F,inactive,–
CO[C@H](C[C@H](CCCCCNCc1ccc(F)cc1)C(=O)NO)c1ccc(F)cc1,inactive,–
CO[C@H](C[C@H](CCCCNCc1ccc(F)cc1)C(=O)NO)c1ccc(F)cc1,Active,inactive
